Source: ChEMBL document CHEMBL1154910, “Nitric oxide donors or nitrite counteract copper-[dithiocarbamate](2)-mediated tumor cell death and inducible nitric oxide synthase down-regulation: possible role of a nitrosyl-copper [dithiocarbamate](2) complex” (J Med Chem, 2010)
Active and inactive are the calls of the source. The rule behind the calls is not given here.

How the values were obtained:
Format in all cases: functional, cell-based
C8161 [1] = assay: Inhibition of [DEDTC]2-Cu-induced cytotoxicity against human C8161 cells at 50 uM
SK-BR-3 [2] = assay: Inhibition of [DEDTC]2-Cu-induced cytotoxicity against human SK-BR-3 cells at 50 uM
C8161 [3] = assay: Inhibition of [DEDTC]2-Cu-induced iNOS-down regulation human C8161 cells
SK-BR-3 [4] = assay: Inhibition of [DEDTC]2-Cu-induced apoptosis in human SK-BR-3 cells assessed as PARP-cleavage at 50 uM

Row | Structure (SMILES) | Activity (C8161 [1]) | Activity (SK-BR-3 [2]) | Activity (C8161 [3]) | Activity (SK-BR-3 [4])
1 | NCCN(CCN)N(O)N=O | Active |  |  | 
2 | CC(=O)N[C@@H](C(=O)O)C(C)(C)SN=O | Active | Active | Active | Active
